# Experimental data reported in ChEMBL document CHEMBL5052827, “Ash1l inhibitors and methods of treatment therewith” (2020).
# Activity calls are given as the source filed them. The calls are words filed in the database; no cut-off is given here.
# Test system: SEM cells
# Test: Antiproliferative activity against human SEM cells measured after 14 days by MTT assay
# Format: functional
# Details: 336 h, time 14 day
row,Compound,GI50 [µM]
1,CC(C)S(=O)(=O)N1CCC(n2cc(-c3cccc(C(N)=S)c3)c3ccc(CNc4nnc(N)s4)cc32)CC1,2

# Test system: KOPN-8
# Test: Antiproliferative activity against human KOPN-8 cells measured after 14 days by MTT assay
# Format: functional
# Details: KOPN-8, 336 h, time 14 day
row,Compound,GI50 [µM]
1,CC1CN(S(C)(=O)=O)CCC1n1cc(-c2cccc(C(N)=S)c2)c2ccc(N)cc21 (configuration not stated),2.5
2,CC(C)S(=O)(=O)N1CCC(n2cc(-c3cccc(C(N)=S)c3)c3ccc(CNc4nnc(N)s4)cc32)CC1,5

# Target: Histone-lysine N-methyltransferase ASH1L (Homo sapiens, UniProt Q9NR48)
# Test: Inhibition of ASH1L SET-BAH construct (unknown origin) (2069 to 2833 residues) using SAM as substrate incubated for 1 hr and measured after 45 mins by Beckman scintillation counter method
# Details: not given
row,IC50 [µM],Compound
1,< 20,COCCN1CC(C(=O)NCc2ccc3c(-c4cccc(C(N)=S)c4)cn(C4CCN(S(C)(=O)=O)CC4)c3c2)C1
2,< 20,CC1CC(n2cc(-c3cccc(C(N)=S)c3)c3ccc(N)cc32)CCN1S(C)(=O)=O (configuration not stated)
3,< 20,CNC(=O)NCc1ccc2c(-c3cccc(C(N)=S)c3)cn(C3CCN(S(=O)(=O)C(F)(F)F)CC3)c2c1
4,< 20,CCN1CC(C(=O)NCc2ccc3c(-c4cccc(C(N)=S)c4)cn(C4CCN(c5nccs5)CC4)c3c2)C1
5,< 20,CN1CC(C(=O)NCc2ccc3c(-c4cccc(C(N)=S)c4)cn(C4CCN(S(=O)(=O)C(F)(F)F)CC4)c3c2Cl)C1
6,< 20,CC(C)S(=O)(=O)N1CCC(n2cc(-c3cccc(C(N)=S)c3)c3ccc(CNC(=O)C4CCN4)cc32)CC1 (configuration not stated)
7,< 20,CCCCCCN1CC(C(=O)NCc2ccc3c(-c4cccc(C(N)=S)c4)cn(C4CCN(S(=O)(=O)C(F)(F)F)CC4)c3c2)C1
8,< 20,NC(=S)c1cccc(-c2cn(C3CCN(c4nccs4)CC3)c3cc(CNC(=O)C4CNC4)ccc23)c1
9,< 20,NC(=S)c1cccc(-c2cn(C3CCN(S(=O)(=O)C(F)(F)F)CC3)c3cc(CNc4nnc(N)s4)ccc23)c1
10,< 20,NC(=S)c1cccc(-c2cn(C3CCC(F)(F)CC3)c3c(Cl)c(N)ccc23)c1
11,< 20,CCC(=O)Nc1ccc2c(-c3cccc(C(N)=S)c3)cn(C3CCN(S(=O)(=O)C(C)C)CC3)c2c1
12,< 20,C[C@@H]1CN[C@H](C(=O)NCc2ccc3c(-c4cccc(C(N)=S)c4)cn(C4CCN(S(=O)(=O)C(F)(F)F)CC4)c3c2)C1
13,< 20,NC(=S)c1cccc(-c2cn(C3CCN(S(=O)(=O)C(F)(F)F)CC3)c3cc(CNC(=O)C4CNCCN4)ccc23)c1 (configuration not stated)
14,< 20,CS(=O)(=O)Nc1ccc2c(-c3cccc(C(N)=S)c3)cn(C3CCOCC3)c2c1
15,< 20,CC(C)S(=O)(=O)N1CCC(n2cc(-c3cccc(C(N)=S)c3)c3ccc(CNC(=O)C4CCCN4)cc32)CC1 (configuration not stated)
16,< 20,CS(=O)(=O)N1CCC(n2cc(-c3cccc(C(N)=S)c3)c3ccc(CNC(=O)Cc4c[nH]cn4)c(Cl)c32)CC1
17,< 20,CC(C)S(=O)(=O)N1CCC(n2cc(-c3cccc(C(N)=S)c3)c3ccc(CNC(=O)C4CNC4)cc32)CC1
18,< 20,CC1CN(S(C)(=O)=O)CCC1n1cc(-c2cccc(C(N)=S)c2)c2ccc(CNc3nnc(N)s3)cc21 (configuration not stated)
19,< 20,CCCOC1CNC(C(=O)NCc2ccc3c(-c4cccc(C(N)=S)c4)cn(C4CCN(S(=O)(=O)C(C)C)CC4)c3c2)C1 (configuration not stated)
20,< 20,NC(=S)c1cccc(-c2cn(C3CCN(S(=O)(=O)C(F)(F)F)CC3)c3cc(CNC(=O)NCC4CCN4)ccc23)c1 (configuration not stated)
21,< 20,CC(C)S(=O)(=O)N1CCC(n2cc(-c3cccc(C(N)=S)c3)c3ccc(CNC(=O)C4CN(C)C4)cc32)CC1
22,< 20,CC(C)S(=O)(=O)N1CCC(n2cc(-c3cccc(C(N)=S)c3)c3ccc(N4CCCC4=O)cc32)CC1
23,< 20,CCCOC1CCNC1C(=O)NCc1ccc2c(-c3cccc(C(N)=S)c3)cn(C3CCN(S(=O)(=O)C(C)C)CC3)c2c1 (configuration not stated)
24,< 20,NC(=S)c1cccc(-c2cn(C3CCN(S(=O)(=O)C(F)(F)F)CC3)c3cc(CNC(=O)[C@@H]4C[C@H](O)CN4)ccc23)c1
25,< 20,CC(C)S(=O)(=O)N1CCC(n2cc(-c3cccc(C(N)=S)c3)c3ccc(N)cc32)CC1
26,< 20,CC(=O)Nc1ccc2c(-c3cccc(C(N)=S)c3)cn(C3CCN(S(=O)(=O)C(F)(F)F)CC3)c2c1
27,< 20,CCCCCCN1CC(C(=O)NCc2ccc3c(-c4cccc(C(N)=S)c4)cn(C4CCN(S(C)(=O)=O)CC4)c3c2)C1
28,< 20,CC1CN(S(C)(=O)=O)CCC1n1cc(-c2cccc(C(N)=S)c2)c2ccc(CNC(=O)C3CN(C)C3)cc21 (configuration not stated)
29,< 20,NC(=S)c1cccc(-c2cn(C3CCN(S(=O)(=O)C(F)(F)F)CC3)c3cc(CNC(=O)[C@@H]4C[C@H](F)CN4)ccc23)c1
30,< 20,NC(=S)c1cccc(-c2cn(C3CCN(c4nccs4)CC3)c3cc(CNC(=O)c4c[nH]c5ncccc45)ccc23)c1

# Further lines, the molecule ahead of its results:
row,Compound,IC50 [µM]
1,CS(=O)(=O)Nc1ccc2c(-c3cccc(C(N)=S)c3)cn(C3CCC(F)(F)CC3)c2c1,< 20
2,NC(=S)c1cccc(-c2cn(C3CCC(F)(F)CC3)c3cc(NC(=O)CCCCCNC(=O)c4ccc5c(c4)C(=O)OC54c5ccc(O)cc5Oc5cc(O)ccc54)ccc23)c1,< 20
3,CS(=O)(=O)N1CCC(n2cc(-c3cccc(C(N)=S)c3)c3ccc(NC(=O)CCOCCOCCOCCOCCOCCOCCOCCOCCNC(=O)CCCC[C@@H]4SC[C@@H]5NC(=O)N[C@@H]54)cc32)CC1,< 20
4,COc1ccc(Cn2cnc([N+](=O)[O-])c2NCc2ccc3c(-c4cccc(C(N)=S)c4)cn(C4CCOCC4)c3c2)cc1,< 20
5,CS(=O)(=O)N1CCC(n2cc(-c3cccc(C(N)=S)c3)c3ccc(NC(=O)CCCCCNC(=O)CCCC[C@@H]4SC[C@@H]5NC(=O)N[C@@H]54)cc32)CC1,< 20
6,CC(C)S(=O)(=O)N1CCC(n2cc(-c3cccc(C(N)=S)n3)c3ccc(CNc4nnc(N)s4)cc32)CC1,< 20
7,NC(=S)c1cccc(-c2cn(C3CCN(S(=O)(=O)CCCNC(=O)CCCC[C@@H]4SC[C@@H]5NC(=O)N[C@@H]54)CC3)c3cc(CNC(=O)c4c[nH]c5ccccc45)ccc23)c1,< 20
8,COc1ccc(Cn2cnc(NCc3ccc4c(-c5cccc(C(N)=S)c5)cn(C5CCOCC5)c4c3)c2[N+](=O)[O-])cc1,< 20
9,CN(C)c1cccc2c(S(=O)(=O)NCCCCCCCCC(=O)Nc3ccc4c(-c5cccc(C(N)=S)c5)cn(C5CCC(F)(F)CC5)c4c3)cccc12,< 20
10,CS(=O)(=O)N1CC2CCC1CC2n1cc(-c2cccc(C(N)=S)c2)c2ccc(N)cc21 (configuration not stated),< 20
11,CC(C)S(=O)(=O)N1CCC(n2cc(-c3cccc(C(N)=S)c3)c3ccc(NC(=O)CCCC[C@@H]4SC[C@@H]5NC(=O)N[C@@H]54)cc32)CC1,< 20
12,NC(=S)c1cccc(-c2cn(C3CCN(c4nccs4)CC3)c3cc(CNc4nnc(N)s4)ccc23)c1,< 20
13,COc1cccc2[nH]cc(-c3cccc(C(N)=S)c3)c12,< 20
14,CS(=O)(=O)N1CCC(n2cc(-c3cccc(C(N)=S)c3)c3ccc(NC(=O)CCCCCNC(=O)c4ccc5c(c4)C(=O)OC54c5ccc(O)cc5Oc5cc(O)ccc54)cc32)CC1,< 20
15,NC(=S)c1cccc(-c2cn(CC(CF)CF)c3cc(NC(=O)CCc4nccs4)ccc23)c1,< 20
16,CCC(=O)Nc1ccc2c(-c3cccc(C(N)=S)c3)cn(CC(CF)CF)c2c1,< 20
17,NC(=S)c1cccc(-c2cn(C3CCN(S(=O)(=O)C(F)(F)F)CC3)c3cc(NC(=O)CCOCCOCCOCCOCCOCCOCCNC(=O)CCCC[C@@H]4SC[C@@H]5NC(=O)N[C@@H]54)ccc23)c1,< 20
18,COCCC(=O)Nc1ccc2c(-c3cccc(C(N)=S)c3)cn(CC(CF)CF)c2c1,< 20
19,Cc1cc(N2CCC(n3cc(-c4cccc(C(N)=S)c4)c4ccc(CNc5nnc(N)s5)cc43)CC2)n(C)n1,< 20
20,CC1CC(n2cc(-c3cccc(C(N)=S)c3)c3ccc(CNc4nnc(N)s4)cc32)CCO1 (configuration not stated),< 20
21,NC(=S)c1cccc(-c2cn(C3CCOCC3)c3cc(CNc4cc[nH]n4)ccc23)c1,< 20
22,NC(=S)c1cccc(-c2cn(CC(CF)CF)c3cc(NC(=O)Cc4nccs4)ccc23)c1,< 20
23,NC(=S)c1cccc(-c2cn(C3CCOCC3)c3cc(CNc4nnc(N)[nH]4)ccc23)c1,< 20
24,NC(=S)c1cccc(-c2cn(C3CCC(F)(F)CC3)c3cc(CNC(=O)C4CNC4)ccc23)c1,< 20
25,COCCC(=O)Nc1ccc2c(-c3cccc(C(N)=S)c3)cn(C3CCC(F)(F)CC3)c2c1,< 20
26,CS(=O)(=O)N1CCC(n2cc(-c3cccc(C(N)=S)c3)c3ccc(NC(=O)CCOCCOCCOCCOCCNC(=O)CCCC[C@@H]4SC[C@@H]5NC(=O)N[C@@H]54)cc32)CC1,< 20

# Test system: MV4-11
# Test: Antitumor activity in human MV4-11-Luc cells xenografted female NSG mouse assessed as decrease in leukemia progression at 25 mg/kg, ip administered twice a day for 21 days
# Format: functional, organism-based
# Details: time 21.0 day
row,Compound,Activity
1,NC(=S)c1cccc(-c2cn(C3CCN(S(=O)(=O)C(F)(F)F)CC3)c3cc(CNC(=O)C4CNC4)ccc23)c1,Active

# Test system: MV4-11
# Test: Antiproliferative activity against human MV4-11 cells measured after 14 days by MTT assay
# Format: functional
# Details: MV4-11, 336 h, time 14 day
row,GI50 [µM],Compound
1,2.5,CC(C)S(=O)(=O)N1CCC(n2cc(-c3cccc(C(N)=S)c3)c3ccc(CNc4nnc(N)s4)cc32)CC1

# Test system: MV4-11
# Test: Induction of human MV4-11 cell differentiation at 6 to 12 uM measured after 7 days
# Format: functional, cell-based
# Details: dose 6-12 µM, time 7.0 day
row,Compound,Activity
1,CC1CN(S(C)(=O)=O)CCC1n1cc(-c2cccc(C(N)=S)c2)c2ccc(N)cc21 (configuration not stated),Active

# Test system: not listed separately
# Test: Cytotoxicity against human CD34-positive cells
# Format: toxicity, cell-based, CD34-positive (myeloid/lymphoid) cell
# Details: not given
row,Compound,GI50 [µM]
1,CC1CN(S(C)(=O)=O)CCC1n1cc(-c2cccc(C(N)=S)c2)c2ccc(N)cc21 (configuration not stated),> 50

# Test system: K562
# Test: Antiproliferative activity against human K562 cells measured after 14 days by MTT assay
# Format: functional
# Details: K562, 336 h, time 14 day
row,GI50 [µM],Compound
1,> 25,CC1CN(S(C)(=O)=O)CCC1n1cc(-c2cccc(C(N)=S)c2)c2ccc(N)cc21 (configuration not stated)
2,> 50,CC(C)S(=O)(=O)N1CCC(n2cc(-c3cccc(C(N)=S)c3)c3ccc(CNc4nnc(N)s4)cc32)CC1

# Test system: MOLM-13
# Test: Antiproliferative activity against human MOLM-13 cells measured after 14 days by MTT assay
# Format: functional
# Details: MOLM-13, 336 h, time 14 day
row,GI50 [µM],Compound
1,2.7,CC1CN(S(C)(=O)=O)CCC1n1cc(-c2cccc(C(N)=S)c2)c2ccc(N)cc21 (configuration not stated)
2,5.5,CC(C)S(=O)(=O)N1CCC(n2cc(-c3cccc(C(N)=S)c3)c3ccc(CNc4nnc(N)s4)cc32)CC1
